# Where two headings read alike, the source gives them in different places.
# Tests used:
# [1] = tested on: human non small cell lung cancer cell line H460; assay: Antiproliferation (cytotoxicity) assay, 72 hrs under air, Alamar Blue; assay type: cell-based
# [2] = In vivo pharmacokinetics, oral gavage; conditions: CD-mice, oral gavage
# Description: The data normalized to a 50 mg/kg dose are shown below (compounds were dosed at either 25 or 50 mg/kg).
# [3] = tested on: BCRP, which over expressed the breast cancer resistance protein; assay: Efflux pump drug resistance, antiproliferation assay, BCRP over expressing line
# Description: (§1) The compounds were screened for cytotoxicity using human non small cell lung cancer cell line H460. […]
# (§2) Cellular drug resistance was determined using the antiproliferation assay described above.
# [4] = tested on: Messa ovarian carcinoma cell line; assay: Efflux pump drug resistance, antiproliferation assay, parent line; assay type: cell-based; conditions: Homo sapiens, MES-SA, 72 h, air, 3 days; read-out: Air 3d MESSA prol. IC50
# Description: […] Cells were treated with test compounds at various concentrations under air for 72 hrs, and then cell viability and proliferation were assessed by Alamar Blue staining.
# as §2
# pcDNA = assay: as above; assay type: cell-based; conditions: 72 h, air, 3 days; read-out: Air 3d pcDNA prol. IC50
# Description: as §1, §2
# [5] = tested on: DX5, which over expresses the MDR 1 efflux pump; assay: Efflux pump drug resistance, antiproliferation assay, MDR 1 over expressing line; assay type: cell-based; conditions: MDR1, 72 h, air, 3 days; read-out: Air 3d DX5 prol. IC50
# Description: as §1, §2
# [6] = tested on: human non small cell lung cancer H-460; assay: Xenograft model, subcutaneous, tumor growth inhibition and body weight loss
# Description: The first three models were produced by subcutaneous implantation of the appropriate number of cells into the flank of the animals. When tumor size was approximately 150 mm^3, animals were randomized into groups of 10 mice each for dosing. One arm was dosed with only vehicle and the results used for the efficacy calculations. […] TGI=(1−T/C) %. T/C ratio was calculated as T/C=(Tn−Ti)/(Cn−Ci), where Tn is tumor volume in treatment group on Day n, and Ti is the initial tumor volume in the treatment group. Cn is the tumor volume of the vehicle group on the last day of measurement. Ci is the initial tumor volume in the vehicle control group. Day n is the last measurement taken when all the animals in the vehicle group were not yet euthanized. Animals were euthanized when tumor volumes grew larger than 2000 mm^3.
# [7] = Homo sapiens, NCI-H460, H460, inhibition of proliferation, 72 hrs under air, read-out: IC50
smiles,measurement,setting,value
CC[C@@]1(O)C(=O)OCc2c1c([N+](=O)[O-])c1n(c2=O)Cc2c-1nc1ccccc1c2/C=N/N(CCO)C(C)=O [TH1780],IC50,[1]; [7],28000 nM
CC[C@@]1(O)C(=O)OCc2c1c([N+](=O)[O-])c1n(c2=O)Cc2c-1nc1cccc([N+](=O)[O-])c1c2Br [TH1636],IC50,[1]; [7],6200 nM
CC[C@@]1(O)C(=O)OCc2c1c(N)c1n(c2=O)Cc2c-1nc1ccccc1c2CNCC(C)(C)C [TH1814],IC50,[1]; [7],15 nM
CC[C@@]1(O)C(=O)OCc2c1c(N)c1n(c2=O)Cc2c-1nc1ccccc1c2/C=N/N(CCO)C(=O)c1ccccc1 [TH1800],IC50,[1]; [7],220 nM
CC[C@@]1(O)C(=O)OCc2c1c([N+](=O)[O-])c1n(c2=O)Cc2c-1nc1ccccc1c2/C=N/c1c(F)c(F)c(O)c(F)c1F [TH1805],IC50,[1]; [7],49000 nM
CC[C@@]1(O)C(=O)OCc2c1c(N)c1n(c2=O)Cc2c-1nc1ccccc1c2/C=N/N1CCOCOC1 [TH1816],IC50,[1]; [7],23 nM
CCOC(=O)/C=C/c1c2c(nc3ccccc13)-c1c(N)c3c(c(=O)n1C2)COC(=O)[C@]3(O)CC [TH1789],IC50,[1]; [7],31 nM
CC[C@@]1(O)C(=O)OCc2c1c(N)c1n(c2=O)Cc2c-1nc1ccccc1c2/C=N/N(CCO)C(=O)C(C)C [TH1796],IC50,[1]; [7],12 nM
CC[C@@]1(O)C(=O)OCc2c1c([N+](=O)[O-])c1n(c2=O)Cc2c-1nc1ccccc1c2/C=N/c1ccccc1O [TH1803],IC50,[1]; [7],3600 nM
CC[C@@]1(O)C(=O)OCc2c1c([N+](=O)[O-])c1n(c2=O)Cc2cc3c([N+](=O)[O-])cccc3nc2-1 [TH1385],IC50,[1]; [7],> 1000 nM
CC[C@@]1(O)C(=O)OCc2c1c(N)c1n(c2=O)Cc2c-1nc1ccccc1c2CO [TH1599],IC50,[1]; [7],4.3 nM
CC[C@@]1(O)C(=O)OCc2c1c([N+](=O)[O-])c1n(c2=O)Cc2c-1nc1ccccc1c2/C=N/N(CCO)C(=O)C(C)(C)C [TH1791],IC50,[1]; [7],4000 nM
CC[C@@]1(O)C(=O)OCc2c1c([N+](=O)[O-])c1n(c2=O)Cc2c-1nc1ccccc1c2/C=N/N1CCOCC1 [TH1767],IC50,[1]; [7],6000 nM
CC[C@@]1(O)C(=O)OCc2c1c([N+](=O)[O-])c1n(c2=O)Cc2c-1nc1ccccc1c2/C=N/OCC1CO1 (some centres unmarked) [TH1776],IC50,[1]; [7],3200 nM
"CC[C@@]1(O)C(=O)OCc2c1cc1n(c2=O)Cc2cc3ccccc3nc2-1 [Camptothecin, reference compound]",IC50,"[1]; H460, inhibition of proliferation, 72 hrs under air, read-out: IC50",14 nM
same,half-life,[2],1.98 h
same,Cmax,"[2]; 5% DMSO, 5% Tween 80 suspension in water, normalized to a 50 mg/kg dose",374 ng/mL
same,AUC,[2]; normalized to a 50 mg/kg dose,58.1 µg·min/mL
same,ratio BCRP over expressing line versus the parent cell line,"[3]; ratio of IC50s, BCRP versus pcDNA",1.6
CCOC(=O)/C=C/c1c2c(nc3ccccc13)-c1c([N+](=O)[O-])c3c(c(=O)n1C2)COC(=O)[C@]3(O)CC [TH1781],IC50,[1]; [7],28000 nM
CC[C@@]1(O)C(=O)OCc2c1c([N+](=O)[O-])c1n(c2=O)Cc2c-1nc1ccccc1c2CO [TH1333],IC50,[1]; [7],> 1000 nM
same,IC50,[4],15000 nM
same,IC50,"[3]; 72 h, read-out: Air 3d BCRP prol. IC50 nM, air, 3 days",7800 nM
same,3d BCRP/pcDNA,"[3]; ratio of IC50s, BCRP over expressing versus parent line, 3 days",2
same,IC50,pcDNA,3900 nM
same,IC50,[5],34000 nM
CC[C@@]1(O)C(=O)OCc2c1c(N)c1n(c2=O)Cc2c-1nc1ccccc1c2CCC(=O)OC(C)(C)C [TH1790],IC50,[1]; [7],46 nM
CC[C@@]1(O)C(=O)OCc2c1c([N+](=O)[O-])c1n(c2=O)Cc2c-1nc1cccc([N+](=O)[O-])c1c2/C=N/OCCN1CCCCC1 [TH1525],IC50,[1]; [7],> 1000 nM
CC[C@@]1(O)C(=O)OCc2c1c(N)c1n(c2=O)Cc2c-1nc1ccccc1c2CC[Si](C)(C)C [TH1631],IC50,[1]; [7],7.4 nM
CC[C@@]1(O)C(=O)OCc2c1c([N+](=O)[O-])c1n(c2=O)Cc2c-1nc1ccccc1c2C#N [TH1766],IC50,[1]; [7],> 1000 nM
CC[C@@]1(O)C(=O)OCc2c1c([N+](=O)[O-])c1n(c2=O)Cc2c-1nc1ccccc1c2/C=C/N1CCN(C)CC1 [TH1770],IC50,[1]; [7],9100 nM
CC[C@@]1(O)C(=O)OCc2c1c(N)c1n(c2=O)Cc2c-1nc1ccccc1c2/C=C/C(=O)OC(C)(C)C [TH1811],IC50,[1]; [7],14 nM
CC[C@@]1(O)C(=O)OCc2c1c(N)c1n(c2=O)Cc2c-1nc1ccccc1c2CC(C)(C)C [TH1643],IC50,[1]; [7],43 nM
CC[C@@]1(O)C(=O)OCc2c1c(N)c1n(c2=O)Cc2c-1nc1ccccc1c2/C=N/N(CCO)C(=O)C(C)(C)C [TH1793],IC50,[1]; [7],19 nM
CC[C@@]1(O)C(=O)OCc2c1c(N)c1n(c2=O)Cc2c-1nc1ccccc1c2/C=N/N(CCO)C(C)=O [TH1783],IC50,[1]; [7],460 nM
CC[C@@]1(O)C(=O)OCc2c1c(N)c1n(c2=O)Cc2c-1nc1ccccc1c2/C=N/N1CCOCC1 [TH1777],IC50,[1]; [7],16 nM
CC[C@@]1(O)C(=O)OCc2c1c([N+](=O)[O-])c1n(c2=O)Cc2c-1nc1ccccc1c2/C=C/C(C)=O [TH1784],IC50,[1]; [7],4900 nM
CCOC(=O)CCc1c2c(nc3ccccc13)-c1c(N)c3c(c(=O)n1C2)COC(=O)[C@]3(O)CC [TH1787],IC50,[1]; [7],12 nM
CC[C@@]1(O)C(=O)OCc2c1c([N+](=O)[O-])c1n(c2=O)Cc2c-1nc1ccccc1c2/C=N/NCCO [TH1768],IC50,[1]; [7],6600 nM
CC[C@@]1(O)C(=O)OCc2c1c([N+](=O)[O-])c1n(c2=O)Cc2c-1nc1ccccc1c2CC[Si](C)(C)C [TH1626],IC50,[1]; [7],> 1000 nM
CC[C@@]1(O)C(=O)OCc2c1c([N+](=O)[O-])c1n(c2=O)Cc2c-1nc1ccccc1c2CC[Si](C)(C)O [TH1627],IC50,[1]; [7],> 1000 nM
CC[C@@]1(O)C(=O)OCc2c1c(N)c1n(c2=O)Cc2c-1nc1ccccc1c2C#N [TH1801],IC50,[1]; [7],23 nM
CC[C@@]1(O)C(=O)OCc2c1c(N)c1n(c2=O)Cc2c-1nc1ccccc1c2CN [TH1769],IC50,[1]; [7],330 nM
CC[C@@]1(O)C(=O)OCc2c1c(N)c1n(c2=O)Cc2c-1nc1ccccc1c2C(OC)OC [TH1785],IC50,[1]; [7],39 nM
CC[C@@]1(O)C(=O)OCc2c1c([N+](=O)[O-])c1n(c2=O)Cc2c-1nc1ccccc1c2/C=N/N(CCOS(C)(=O)=O)S(C)(=O)=O [TH1798],IC50,[1]; [7],2500 nM
CC[C@@]1(O)C(=O)OCc2c1c([N+](=O)[O-])c1n(c2=O)Cc2c-1nc1ccccc1c2/C=C/C(=O)OC(C)(C)C [TH1786],IC50,[1]; [7],21000 nM
CC[C@@]1(O)C(=O)OCc2c1c([N+](=O)[O-])c1n(c2=O)Cc2c-1nc1ccccc1c2/C=N/c1ccc(C(C)(C)C)cc1 [TH1804],IC50,[1]; [7],> 50000 nM
CC[C@@]1(O)C(=O)OCc2c1c(N)c1n(c2=O)Cc2c-1nc1ccccc1c2/C=N/N1CCN(C)CC1 [TH1775],IC50,[1]; [7],26 nM
"CC[C@@]1(O)C(=O)OCc2c1c([N+](=O)[O-])c1n(c2=O)Cc2c-1nc1ccccc1c2C=O [TH1762, 7-formyl-14-nitro camptothecin]",IC50,[1]; [7],7200 nM
CC[C@@]1(O)C(=O)OCc2c1c(N)c1n(c2=O)Cc2c-1nc1ccccc1c2/C=N/N(CCOS(C)(=O)=O)S(C)(=O)=O [TH1799],IC50,[1]; [7],8.1 nM
CC[C@@]1(O)C(=O)OCc2c1c([N+](=O)[O-])c1n(c2=O)Cc2c-1nc1ccccc1c2/C=N/N(CCO)C(=O)c1ccccc1 [TH1797],IC50,[1]; [7],40000 nM
CC[C@@]1(O)C(=O)OCc2c1c([N+](=O)[O-])c1n(c2=O)Cc2c-1nc1ccccc1c2/C=N/N(CCO)C(=O)C(C)C [TH1794],IC50,[1]; [7],2300 nM
CC[C@@]1(O)C(=O)OCc2c1c(N)c1n(c2=O)Cc2c-1nc1ccccc1c2/C=N/NCCO [TH1778],IC50,[1]; [7],270 nM
CC[C@@]1(O)C(=O)OCc2c1c([N+](=O)[O-])c1n(c2=O)Cc2c-1nc1cccc([N+](=O)[O-])c1c2/C=N/OCCN1CCOCC1 [TH1523],IC50,[1]; [7],830 nM
CC[C@@]1(O)C(=O)OCc2c1c([N+](=O)[O-])c1n(c2=O)Cc2c-1nc1ccccc1c2CC(C)(C)C [TH1644],IC50,[1]; [7],800 nM
CC[C@@]1(O)C(=O)OCc2c1c(N)c1n(c2=O)Cc2c-1nc1ccccc1c2CC[Si](C)(C)O [TH1628],IC50,[1]; [7],62 nM
CCCc1c2c(nc3ccccc13)-c1c([N+](=O)[O-])c3c(c(=O)n1C2)COC(=O)[C@]3(O)CC [TH1650],IC50,[1]; [7],685 nM
same,TGI (%),"[6]; H460, PO, QD × 5/wk, 2 weeks, 40 mg/Kg",85%
same,Max. BWL (%),"[6]; mouse, in vivo, po, 40 mg/kg",6.7%
CC[C@@]1(O)C(=O)OCc2c1c(N)c1n(c2=O)Cc2c-1nc1ccccc1c2/C=N/c1ccc(C(C)(C)C)cc1 [TH1809],IC50,[1]; [7],1400 nM
CC[C@@]1(O)C(=O)OCc2c1c([N+](=O)[O-])c1n(c2=O)Cc2c-1nc1ccccc1c2/C=N/OCCN(C)C [TH1522],IC50,[1]; [7],> 1000 nM
CC[C@@]1(O)C(=O)OCc2c1c([N+](=O)[O-])c1n(c2=O)Cc2c-1nc1ccccc1c2/C=N/OCCN1CCCCC1 [TH1524],IC50,[1]; [7],> 1000 nM
CC[C@@]1(O)C(=O)OCc2c1c([N+](=O)[O-])c1n(c2=O)Cc2c-1nc1ccccc1c2CO[N+](=O)[O-] [TH1598],IC50,"[1]; Homo sapiens, NCI-H460, 72 h",89 nM
C=CCO/N=C/c1c2c(nc3ccccc13)-c1c([N+](=O)[O-])c3c(c(=O)n1C2)COC(=O)[C@]3(O)CC [TH1771],IC50,[1]; [7],> 10000 nM
CC[C@@]1(O)C(=O)OCc2c1c([N+](=O)[O-])c1n(c2=O)Cc2c-1nc1ccccc1c2/C=N/N1CCOCOC1 [TH1812],IC50,[1]; [7],2800 nM

# Source: patent US8575188B2 (priority 2009, dated 2013)
